Measured values reported in ChEMBL document CHEMBL5532691, “Anti-cancer activity and mechanism of flurbiprofen organoselenium compound RY-1-92 in non-small cell lung cancer” (RSC Med Chem, 2024).

System: BEAS-2B
Test: Cytotoxicity against human BEAS-2B cells assessed as reduction in cell viability at 1.2 mM measured after 48 hrs by MTT assay
Format: toxicity, cell-based
Details: 1200 µM

## CC1=C(CC(=O)O)c2cc(F)ccc2/C1=C\c1ccc([S+](C)[O-])cc1 (stereo unspecified) [SULINDAC]
  Activity: Toxic
